Molecules are shown by their SMILES. In brackets after ≈: the same amount, converted by molar mass. Like-named read-outs stand apart in the source and are kept apart here. Numbered stars: 1 amine (or outer) side, 2 acyl side, 3 side chain; on linkers, the order of the positions; unused ones are H or OH. Bridge positions count the residues as written; N and C are the ends. Side chains are listed from the residue outwards. Peptide text beside a SMILES is read from it. * marks the point of attachment. C20 diacid = O=C(O)CCCCCCCCCCCCCCCCCCC(=O)*; γGlu = O=C(O)[C@H](CCC(=O)[*:2])N[*:1]; AEEA = NCCOCCOCC(=O)O A value given as a limit tells only on which side of the number the result lay.

Series [1] concerns the target T1, human amylin 3(a) receptor (human calcitonin receptor + RAMP-3) in BHK570 cells (Homo sapiens, UniProt O60896+P30988).
T1 construct: expressed in transfected cells
The series can be described thus: ASSAY (II)a functional assay, human amylin receptor (CRE luciferase). Type of series: cell-based. The settings on record: for EC50: human amylin receptor functional potency, assay (II), read-out: hAmylin-R funct. EC50. In a few lines:
(§1)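 Read-out: CRE-driven luciferase luminescence, single photon counting, after 30 min at room temperature with LucLite. BHK cells expressed calcitonin receptor alone or with RAMP-3 (amylin 3(a)). Cells were stimulated 3 h at 37° C in DMEM, 10% FBS, 10 mM Hepes, pH 7.4.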

Series [2] concerns the target T2, human calcitonin (a) receptor in BHK570 cells (Homo sapiens, UniProt P30988).
T2 construct: expressed in transfected cells
T2 sequence (P30988 25-474): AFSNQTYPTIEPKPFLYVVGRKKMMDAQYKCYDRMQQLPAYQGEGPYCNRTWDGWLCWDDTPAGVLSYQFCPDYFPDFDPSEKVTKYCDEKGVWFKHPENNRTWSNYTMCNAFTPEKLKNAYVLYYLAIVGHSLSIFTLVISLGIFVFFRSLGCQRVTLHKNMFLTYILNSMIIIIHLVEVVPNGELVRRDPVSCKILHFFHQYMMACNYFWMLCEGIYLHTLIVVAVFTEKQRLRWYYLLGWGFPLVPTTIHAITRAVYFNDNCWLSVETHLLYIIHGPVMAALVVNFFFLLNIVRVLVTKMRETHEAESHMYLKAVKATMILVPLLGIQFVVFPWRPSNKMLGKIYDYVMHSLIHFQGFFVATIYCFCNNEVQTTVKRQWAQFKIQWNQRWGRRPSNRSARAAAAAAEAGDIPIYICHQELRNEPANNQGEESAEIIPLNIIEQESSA
Briefly: ASSAY (II)a functional assay, human calcitonin receptor (CRE luciferase). Type of series: cell-based. The settings on record: read-out: hCTR funct. EC50. An outline of the steps:
as §1

The nature of series [3]: ASSAY (IV) determination of solubility. Type of series: physicochemical. In a few lines: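 UPLC read-out of polypeptide concentration after centrifugation. Samples: aqueous polypeptide stock ([…]) + 100 mM buffer 1:1, glycylglycine pH 3.0–5.0 or bistrispropane pH 6.0–8.0; 18 h, RT.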
Series [4] deals with T3, human amylin receptor (membranes from Amylin 3(a)/CRE-luc cells) (Homo sapiens, UniProt O60896+P30988).
T3 construct: expressed in transfected cells
T3 sequence (P30988 25-474): T2 sequence (P30988 25-474)
T3 sequence (O60896 24-148 partner): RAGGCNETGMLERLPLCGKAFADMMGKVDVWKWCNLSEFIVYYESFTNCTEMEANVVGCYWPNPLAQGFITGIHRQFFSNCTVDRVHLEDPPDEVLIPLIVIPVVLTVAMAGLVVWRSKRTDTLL
The series can be described thus: ASSAY (V) binding to the human amylin receptor (SPA, 125I-rat amylin).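 On all read-outs here: competition binding of cell membranes (35 ng/µL) mixed with SPA beads in 384-well plates at 40 µL total volume, read by scintillation counting.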 The following applies: for IC50: Table 4, read-out: hAmylin-R bind IC50.

In series [5] the target is T4, human calcitonin receptor (Homo sapiens, UniProt P30988).
T4 construct: expressed in transfected cells
T4 sequence (P30988 25-474): T2 sequence (P30988 25-474)
The series can be described thus: ASSAY (VII) binding to the human calcitonin receptor (SPA, 125I-Calcitonin).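 Further: cell membranes (35 ng/µL) combined with SPA beads in 40 µL of pH 7.4 Hepes buffer, 384-well format, signal counted on a TopCounter instrument.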 The following applies: read-out: hCTR bind IC50.

The target in a further series is T5, rat calcitonin receptor (Rattus norvegicus, UniProt P32214).
T5 construct: expressed in transfected cells; host or cells: BHK tk'ts 13 (transient, FuGENE 6), membranes
T5 sequence (P32214 25-479 isoform P32214-2 limits assumed): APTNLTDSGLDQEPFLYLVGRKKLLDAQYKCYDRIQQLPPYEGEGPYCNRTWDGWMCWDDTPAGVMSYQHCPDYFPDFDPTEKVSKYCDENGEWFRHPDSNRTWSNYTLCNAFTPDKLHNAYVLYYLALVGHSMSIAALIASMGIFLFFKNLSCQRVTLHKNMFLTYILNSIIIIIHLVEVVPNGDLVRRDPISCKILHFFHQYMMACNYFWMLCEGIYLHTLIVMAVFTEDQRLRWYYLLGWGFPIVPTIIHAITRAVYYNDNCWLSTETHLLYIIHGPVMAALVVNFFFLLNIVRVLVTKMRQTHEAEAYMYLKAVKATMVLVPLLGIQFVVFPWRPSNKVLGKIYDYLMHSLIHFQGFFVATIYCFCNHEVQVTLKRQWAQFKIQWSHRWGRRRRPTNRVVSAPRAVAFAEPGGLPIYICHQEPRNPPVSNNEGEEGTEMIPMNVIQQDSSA
The series can be described thus: ASSAY (VIII) binding to the rat calcitonin receptor. The settings on record: Table 7, read-out: rCTR bind IC50. An outline of the steps: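 Receptor source: membranes from transiently transfected BHK tk′ts 13 cells expressing rat calcitonin receptor, collected roughly 48 hours after transfection.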

Setting [6] is: hCTR funct. EC50 divided by hAmylin-R funct. EC50.
Setting [7] is: hCTR funct. EC50 over hAmylin-R funct. EC50.
Where [8] appears, read: human functional selectivity: hCTR funct. EC50 / hAmylin-R funct. EC50.
Where [9] appears, read: bistrispropane buffer, pH 6.5, read-out: Solubility pH 6.5 Concentration.
The mark [10] stands for this setting: bistrispropane buffer, pH 7.5, read-out: Solubility pH 7.5 Concentration.
The mark [11] stands for this setting: bistrispropane buffer, pH 6.0, read-out: Solubility pH 6.0 Concentration.
Where [12] appears, read: bistrispropane buffer, pH 7.0, read-out: Solubility pH 7.0 Concentration.
The mark [13] stands for this setting: bistrispropane buffer, pH 8.0, read-out: Solubility pH 8.0 Concentration.
The mark [14] stands for this setting: glycylglycine buffer, pH 3.0, read-out: Solubility pH 3.0 Concentration.
[15] abbreviates: glycylglycine buffer, pH 4.0, read-out: Solubility pH 4.0 Concentration.
Setting [16] is: glycylglycine buffer, pH 5.0, read-out: Solubility pH 5.0 Concentration.
[17] abbreviates: Table 5, selectivity, hCTR bind IC50 / hAmylin-R bind IC50.
The mark [18] stands for this setting: Table 5a, selectivity, hCTR bind IC50 / hAmylin-R bind IC50.
[19] abbreviates: Table 5b, selectivity, hCTR bind IC50 / hAmylin-R bind IC50.
The mark [20] stands for this setting: Table 5c, selectivity, hCTR bind IC50 / hAmylin-R bind IC50.
Setting [21] is: Table 7, human binding selectivity, included for comparison.
Setting [22] is: Table 7a (preferred compounds), human binding selectivity, included for comparison.
Setting [23] is: ratio of human calcitonin receptor binding IC50 to human amylin receptor binding IC50.

The term EC50 denotes the concentration needed to bring the measured effect to its halfway point. As usually defined, the IC50 is the midpoint of a concentration-inhibition curve. Consider `CC[C@H](C)[C@H](NC(=O)[C@H](C)NC(=O)CNC(=O)[C@H](Cc1ccccc1)NC(=O)[C@H](CC(N)=O)NC(=O)[C@@H]1CCCN1C(=O)[C@H](CO)NC(=O)[C@H](CO)NC(=O)[C@H](Cc1c[nH]cn1)NC(=O)[C@H](CCCNC(=N)N)NC(=O)[C@H](CC(C)C)NC(=O)[C@H](Cc1ccccc1)NC(=O)[C@H](Cc1c[nH]cn1)NC(=O)[C@H](C)NC(=O)[C@H](CC(C)C)NC(=O)[C@H](CCCNC(=N)N)NC(=O)[C@H](CCC(N)=O)NC(=O)[C@@H](NC(=O)[C@H](C)NC(=O)[C@@H]1CSSC[C@H](NC(=O)[C@@H](N)CCCCNC(=O)COCCOCCNC(=O)CC[C@H](NC(=O)CCCCCCCCCCCCCCCCCCC(=O)O)C(=O)O)C(=O)N[C@@H](CC(N)=O)C(=O)N[C@@H]([C@@H](C)O)C(=O)N[C@@H](C)C(=O)N[C@@H]([C@@H](C)O)C(=O)N1)[C@@H](C)O)C(=O)N1CCC[C@H]1C(=O)N[C@@H](CO)C(=O)N[C@@H](CO)C(=O)N[C@H](C(=O)N[C@@H](CC(N)=O)C(=O)N[C@H](C(=O)NCC(=O)N[C@@H](CO)C(=O)N[C@@H](CC(N)=O)C(=O)N[C@H](C(=O)N[C@@H](Cc1ccc(O)cc1)C(N)=O)[C@@H](C)O)C(C)C)[C@@H](C)O` [Example 69] (H-K([AEEA-γGlu-C20 diacid])CNTATCATQRLAHFLRHSSPNFGAIPSSTNVGSNTY-NH2; disulfide 2-7; N-terminus assumed), for which the “Ratio hCT/hAmylin funct.” value in series [1] (setting [6]), in series [1] (setting [7]) and in series [1] (setting [8]) was 13.3 each time. In addition, the EC50 in series [1] came to 0.094 nM; in series [2], 1.25 nM. The solubility at 18 h in series [3] (setting [9]), in series [3] (setting [10]), in series [3] (setting [11]), in series [3] (setting [12]), in series [3] (setting [13]) and in series [3] (setting [14]) was at least 200 µM each time. In addition, the solubility at 18 h in series [3] (setting [15]) and in series [3] (setting [16]) was at least 200 µM each time. In addition, the IC50 in series [4] amounted to 0.133 nM; in series [5], 8.68 nM; on rat calcitonin receptor, 46.8 nM. Further, the “Ratio hCT/hAmylin binding” value in series [4] (setting [17]), in series [4] (setting [18]), in series [4] (setting [19]), in series [4] (setting [20]), in series [4] (setting [21]) and in series [4] (setting [22]) was 65.3 each time. Also, the “Ratio hCT/hAmylin binding” value in series [4] (setting [23]) stood at 65.3.

In the case of `CC[C@H](C)[C@H](NC(=O)[C@H](C)NC(=O)CNC(=O)[C@H](Cc1ccccc1)NC(=O)[C@H](CC(N)=O)NC(=O)[C@@H]1CCCN1C(=O)[C@H](CO)NC(=O)[C@H](CO)NC(=O)[C@H](Cc1c[nH]cn1)NC(=O)[C@H](CCCNC(=N)N)NC(=O)[C@H](CC(C)C)NC(=O)[C@H](Cc1ccccc1)NC(=O)[C@H](CC(N)=O)NC(=O)[C@H](C)NC(=O)[C@H](CC(C)C)NC(=O)[C@H](CCCNC(=N)N)NC(=O)[C@H](CCC(N)=O)NC(=O)[C@@H](NC(=O)[C@H](C)NC(=O)[C@@H]1CSSC[C@H](NC(=O)[C@@H](N)CCCCNC(=O)COCCOCCNC(=O)CC[C@H](NC(=O)CCCCCCCCCCCCCCCCCCC(=O)O)C(=O)O)C(=O)N[C@@H](CC(N)=O)C(=O)N[C@@H]([C@@H](C)O)C(=O)N[C@@H](C)C(=O)N[C@@H]([C@@H](C)O)C(=O)N1)[C@@H](C)O)C(=O)N1CCC[C@H]1C(=O)N1CCC[C@H]1C(=O)N[C@@H](CO)C(=O)N[C@H](C(=O)N[C@@H](CC(N)=O)C(=O)N[C@H](C(=O)NCC(=O)N1CCC[C@H]1C(=O)N[C@@H](CC(N)=O)C(=O)N[C@H](C(=O)N[C@@H](Cc1ccc(O)cc1)C(N)=O)[C@@H](C)O)C(C)C)[C@@H](C)O` [Example 55] (H-K([AEEA-γGlu-C20 diacid])CNTATCATQRLANFLRHSSPNFGAIPPSTNVGPNTY-NH2; disulfide 2-7; N-terminus assumed), the “Ratio hCT/hAmylin funct.” value in series [1] (setting [6]), in series [1] (setting [7]) and in series [1] (setting [8]) was 10.8 each time. The figures for the EC50 in series [1] and in series [2] were 0.068 nM and 0.731 nM, respectively. Moreover, the solubility at 18 h in series [3] (setting [9]) was at least 200 µM; in series [3] (setting [10]) it was at least 200 µM; in series [3] (setting [11]), at least 200 µM; in series [3] (setting [12]), at least 200 µM; in series [3] (setting [13]) it was 119 µM (≈ 541 µg/mL); in series [3] (setting [14]), at least 200 µM. The solubility at 18 h in series [3] (setting [15]) and in series [3] (setting [16]) was at least 200 µM throughout. Also, the IC50 in series [4] is 0.042 nM; in series [5], 2.18 nM; at rat calcitonin receptor, 6.25 nM. The “Ratio hCT/hAmylin binding” value in series [4] (setting [17]), in series [4] (setting [18]), in series [4] (setting [19]), in series [4] (setting [20]), in series [4] (setting [21]) and in series [4] (setting [22]) was 51.8 throughout. Besides, the “Ratio hCT/hAmylin binding” value in series [4] (setting [23]) was 51.8.

For the origin of these results see US9023789B2, “Amylin analogs and pharmaceutical compositions thereof” (Novo Nordisk A/S, priority 2012, dated 2015).
